Assay results as given in patent US8946260B2, “17α-hydroxylase/C17,20-lyase inhibitors” (Novartis AG, priority 2010, dated 2015).

Target: T1, recombinant Human CYP17 enzyme (17-20 lyase) (Homo sapiens, UniProt P05093)
T1 construct: made in house; host or cells: A549 cells, adenoviral expression system; purified cell membrane preparations
T1 sequence (P05093 1-508): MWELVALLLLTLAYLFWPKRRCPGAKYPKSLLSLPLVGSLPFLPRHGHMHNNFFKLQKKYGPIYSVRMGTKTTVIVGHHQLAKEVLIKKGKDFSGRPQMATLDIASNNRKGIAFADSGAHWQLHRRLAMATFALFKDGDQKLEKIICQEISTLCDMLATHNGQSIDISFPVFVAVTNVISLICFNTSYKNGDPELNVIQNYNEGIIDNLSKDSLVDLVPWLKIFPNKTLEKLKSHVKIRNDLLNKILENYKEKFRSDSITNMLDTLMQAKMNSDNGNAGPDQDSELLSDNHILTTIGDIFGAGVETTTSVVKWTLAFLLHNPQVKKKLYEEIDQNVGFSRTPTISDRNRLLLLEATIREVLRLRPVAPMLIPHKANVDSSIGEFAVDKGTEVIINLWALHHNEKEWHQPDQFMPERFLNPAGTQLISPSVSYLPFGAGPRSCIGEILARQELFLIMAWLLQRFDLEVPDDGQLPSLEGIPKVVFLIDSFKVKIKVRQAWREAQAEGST
Assay: Cytochrome P450, 17-20 lyase (CYP17-lyase) assay, 17-α-hydroxy pregnenolone [21-3H] as substrate
Assay type: biochemical
Conditions: human CYP17 lyase; substrate 0.25 μM; room temperature, 90 minutes
Source text: 1) Cytochrome P450, 17-20 Lyase (CYP17-Lyase) Assay Development Using Recombinant Human CYP17 Enzyme and 17-α-Hydroxy Pregnenolone [21-3H] as the Substrate.
Cytochrome P450, 17-α-Hydroxylase, 17-20 lyase (CYP17) is a multi functional enzyme that plays a key role in the biosynthesis of steroid hormones. It catalyses both conventional hydroxylation and also the carbon-carbon bond cleavage reactions (Peter Lee-Robichaud et al, Biochem. J, (1997) 321, 857-63). In the hydroxylation reaction, it converts progesterone and pregnenolone to the corresponding hydroxylated products 17-α-hydroxy progesterone and 17-α-hydroxy pregnenolone. In the lyase reaction, it catalyzes the conversion of these hydroxylated substrates to Androstenedione and Dehydroepiandrosterone (DHEA) respectively. In the Cyp17 lyase assay described here, the conversion of 17-α-hydroxy pregnenolone to Dehydroepiandrosterone and acetic acid is being monitored.
Assay method was adopted from a published protocol with some modifications to suit our requirements (Dmitry N Grigoryev et al, Analytical Biochemistry, (1999) 267, 319-330). The conversion of 17-α-hydroxy pregnenolone to Dehydroepiandrosterone is accompanied by the release of acetic acid. In the Cyp17 lyase assay, 17-α-hydroxy pregnenolone labeled with tritium (3H) at position 21 is used as the substrate. Chloroform extraction removes the radioactive steroids and acetic acid is taken into aqueous layer. The tritiated acetic acid released in the assay thus extracted is quantified to determine the enzyme activity.
Initial buffer conditions were, 50 mM Phosphate buffer, pH 7.5 was used as the starting buffer for Cyp17 lyase activity based on the data published in US patent publication No. US2004/0198773 A1. […] Human Cyp 17 gene was cloned and expressed in Adenoviral expression system in A549 cell lines. The purified cell membrane preparations were used as the source for Human CYP17 enzyme. Total protein concentration: 8 mg/mL.
For routine screening, the assay was set up with 16 μg of enzyme in 50 μL reaction volume. 17α-hydroxy pregnenolone [21-3H] was added to a final concentration of 0.25 μM. NADPH is used at a final concentration of 4.2 mM. Total reaction volume was made up to 50 μL with 50 mM Phosphate buffer pH 7.5. The reaction mixture was incubated at room temperature for 90 minutes with gentle shaking. The reaction was stopped by the addition of 100 μL of buffer. 500 μL of 5% freshly prepared activated charcoal was added to the solution and mixed well by vortexing. The samples were centrifuged at 17568×g for 5 minutes. (14000 rpm). The supernatant was carefully transferred to fresh tube and 1.3 mL of scintillation fluid was added, mixed by vortexing.
The radioactivity was measured in a 1450 MicroBeta TriLux™ scintillation counter from Wallac-Perkin Elmer®, USA. The measurements were carried out in 2.0 mL Eppendorf™ tubes. Each tube was counted for 1 minute. The amount of tritiated acetic acid released is proportional to the lyase activity. Percent lyase activity in presence of inhibitor was calculated using the formula given below.
[formula] • Sample: Enzyme reaction in presence of inhibitor. • Positive control: Enzyme reaction without inhibitor but containing DMSO at 1% final concentration. • Blank—Contains all reagents except enzyme. • % Inhibition=100%−% Lyase activity
For IC50 determination, the % inhibition was plotted as a function of inhibitor concentration. The data was fitted to sigmoidal equation using Graphpad Prism® software IV to generate IC50 values.

| Lyase IC 50 nM Human | Compound |
| --- | --- |
| Not active | O=C1c2ccc(F)cc2CCN1c1cnccc1C(F)(F)F [Example 78A, 6-fluoro-2-(4-(trifluoromethyl)pyridin-3-yl)-3,4-dihydroisoquinolin-1(2H)-one] |

Same assay, conditions: human CYP17 lyase; substrate 0.25 μM; room temperature, 90 minutes; read-out: Lyase IC 50 nM Human

| Compound | IC50 [nM] |
| --- | --- |
| Cc1ccncc1N1CCc2ccncc2C1=O [Example 65A, 2-(4-methylpyridin-3-yl)-3,4-dihydro-2,7-naphthyridin-1(2H)-one] | 1140 |
| Cc1ccncc1N1CCc2cnccc2C1=O [Example 67A, 2-(4-methylpyridin-3-yl)-3,4-dihydro-2,6-naphthyridin-1(2H)-one] | 716 |
| O=c1c2cc(C(F)(F)F)ccc2ccn1-c1cncc(F)c1 [Example 68A, 2-(5-fluoropyridin-3-yl)-7-(trifluoromethyl)isoquinolin-1(2H)-one] | 282 |
| CC1Cc2ccc(C(F)(F)F)cc2C(=O)N1c1cnccc1C(F)(F)F (stereo not shown) [Example 70A, 3-methyl-7-(trifluoromethyl)-2-(4-(trifluoromethyl)pyridin-3-yl)-3,4-dihydroisoquinolin-1(2H)-one] | 744 |
| O=C1c2cc3[nH]ncc3cc2CCN1c1cnccc1C(F)(F)F [Example 72A, 7-(4-(trifluoromethyl)pyridin-3-yl)-6,7-dihydro-1H-pyrazolo[4,3-g]isoquinolin-8(5H)-one] | 730 |
| O=C1c2c(ccc(C(F)(F)F)c2F)CCN1c1cnccc1C(F)(F)F [Example 77A, 8-fluoro-7-(trifluoromethyl)-2-(4-(trifluoromethyl)pyridin-3-yl)-3,4-dihydroisoquinolin-1(2H)-one] | 167 |
| O=C1c2cc(Cl)c(F)cc2CCN1c1cnccc1C(F)(F)F [Example 80A, 7-chloro-6-fluoro-2-(4-(trifluoromethyl)pyridin-3-yl)-3,4-dihydroisoquinolin-1(2H)-one] | 173 |
| O=C1c2cc(C(F)(F)F)c(Cl)cc2CCN1c1cnccc1C(F)(F)F [Example 85A, 6-chloro-7-(trifluoromethyl)-2-(4-(trifluoromethyl)pyridin-3-yl)-3,4-dihydroisoquinolin-1(2H)-one] | 108 |

Other lines, results leading:

| IC50 [nM] | Compound |
| --- | --- |
| 11 | Cc1ccncc1N1CCc2ccc3ncsc3c2C1=O [Example 66A, 8-(4-methylpyridin-3-yl)-7,8-dihydrothiazolo[4,5-h]isoquinolin-9(6H)-one] |
| 93 | Cc1ccncc1N1CCc2cc3cn[nH]c3cc2C1=O [Example 69A, 7-(4-methylpyridin-3-yl)-6,7-dihydro-1H-pyrazolo[4,3-g]isoquinolin-8(5H)-one] |
| 14 | O=C1c2cc(C(F)(F)F)ccc2CCN1c1cnccc1C1CC1 [Example 73A, 2-(4-cyclopropylpyridin-3-yl)-7-(trifluoromethyl)-3,4-dihydroisoquinolin-1(2H)-one] |
| 23 | O=C1c2cc(Cl)ccc2CCN1c1cnccc1C1CC1 [Example 74A, 7-chloro-2-(4-cyclopropylpyridin-3-yl)-3,4-dihydroisoquinolin-1 (2H)-one] |
| 8 | CCc1ccncc1N1CCc2ccc(Cl)cc2C1=O [Example 75A, 7-chloro-2-(4-ethylpyridin-3-yl)-3,4-dihydroisoquinolin-1(2H)-one] |
| 4.2 | O=C1c2c(sc3ccccc23)CCN1c1cnccc1C1CC1 [Example 76A, 2-(4-cyclopropylpyridin-3-yl)-3,4-dihydrobenzo[4,5]thieno[3,2-c]pyridin-1(2H)-one] |
| 19 | O=C1c2cc(I)c(F)cc2CCN1c1cnccc1C(F)(F)F [Example 79A, 6-fluoro-7-iodo-2-(4-(trifluoromethyl)pyridin-3-yl)-3,4-dihydroisoquinolin-1(2H)-one] |
| 3 | O=C1c2cc(Cl)c(F)cc2CCN1c1cnccc1C1CC1 [Example 82A, 7-chloro-2-(4-cyclopropylpyridin-3-yl)-6-fluoro-3,4-dihydroisoquinolin-1(2H)-one] |
| 5.3 | Cc1ccncc1N1CCc2cc(F)c(Cl)cc2C1=O [Example 84A, 7-chloro-6-fluoro-2-(4-methylpyridin-3-yl)-3,4-dihydroisoquinolin-1(2H)-one] |
| 11 | COc1cc2c(cc1Cl)C(=O)N(c1cnccc1C)CC2 [Example 86A, 7-chloro-6-methoxy-2-(4-methylpyridin-3-yl)-3,4-dihydroisoquinolin-1(2H)-one] |
| 11 | Cc1ccncc1N1CCc2cc(C#N)c(Cl)cc2C1=O [Example 88A, 7-chloro-2-(4-methylpyridin-3-yl)-1-oxo-1,2,3,4-tetrahydroisoquinoline-6-carbonitrile] |
| 10 | COc1cc2c(cc1Cl)C(=O)N(c1cnccc1C1CC1)CC2 [Example 89A, 7-chloro-2-(4-cyclopropylpyridin-3-yl)-6-methoxy-3,4-dihydroisoquinolin-1(2H)-one] |
| 11 | N#Cc1cc2c(cc1Cl)C(=O)N(c1cnccc1C1CC1)CC2 [Example 91A, 7-chloro-2-(4-cyclopropylpyridin-3-yl)-1-oxo-1,2,3,4-tetrahydroisoquinoline-6-carbonitrile] |
